The text below walks through data of patent publication US9732322B2, “Compositions for mesoderm derived ISL1+ multipotent cells (IMPs), epicardial progenitor cells (EPCs) and multipotent C56C cells (C56Cs) and methods of producing and using same” (UNIVERSITY OF GEORGIA RESEARCH FOUNDATION, INC., priority 2008, dated 2017).

The subject of one assay is Isl1+ IMP (Spl-m) cells. The assay is described as follows: Stage 2 differentiation of Isl1+ IMPs/Spl-m to Wt1+ epicardial progenitor (PE-like) cells. Type of assay: cell-based, human. The note with it: for Erk activation in Isl1+ Spl-m: immunoblot, phospho-Erk1,2. As for the experimental part: hESC/hFib2-iPS4 hiPSCs grown in StemPro defined media/defined media were differentiated into IMPs (as described above and elsewhere). At day 4, IMP cell stage, the defined media was supplemented with BMP4 (50 ng/ml, range about 2-100 ng/ml, R&D Systems), Wnt3a (25 ng/ml, range about 1-100+ng/ml, R&D Systems) and all-trans retinoic acid (4 μM, range about 0.25-25 μM Sigma), media changed every 2 (1-4 days) days, for about 10-16 days (about 7-25 days) (FIG. 39). The expression of Wt-1, Tbx18, Raldh2 and Tcf21 (epicardin) were confirmed by Q-PCR (FIGS. 40, 42) and Wt-1 by immunofluorescence (FIG. 41). This method typically gives cultures that are >80% positive for Wt1.
(§1) WA01, WA07, WA09, BG01 and BG02 hESCs and Fib-iPS4 hIPSCs^28 were adapted from mouse embryo fibroblast feeder-based culture conditions to feeder-free growth in chemically defined media (CDM) using single cell suspensions^50. Briefly, CDM is composed of DMEM/F12 (Mediatech), 2% probumin (Bovine Serum Albumin fraction V) biotech grade (Millipore), 1× nonessential amino acids, 50 U/mL penicillin, 50 μg/mL streptomycin, 1× trace elements A, B, C (all from Mediatech), 10 μg/mL transferrin, 0.1 mM […] (Gibco), 50 μg/mL ascorbic acid (Sigma), 8 ng/mL bFGF (Invitrogen), 200 ng/mL LR-IGF (Sigma), 10 ng/mL Activin A (R and D Systems) and 10 ng/mL […] (Peprotech). Cells were passaged every 4-5 d using Accutase (Innovative Cell Technologies) to form a single cell suspension and then plated onto plates coated with 1:200 Geltrex (Invitrogen) at a cell density of 7.5×10^4 cells/cm^2 at 37° C. in 5% CO2. Media was changed every 24 h. To differentiate hESC in Stage 1 (FIG. 62), cells were plated at a density of 5.1×10^4 cells/cm^2 into CDM containing 25 ng/mL rmWnt3a and 100 ng/mL rhBMP4 (R&D Systems). Cells were cultured at 37° C. in 5% CO2 and media changed every 24 h for 4-6 d. CDM for Stage 2 of differentiation was supplemented with 25 ng/mL rmWnt3a, 50 ng/mL rhBMP4 with either 100 ng/ml Fgf2 or 4 μM all-trans retinoic acid (Sigma), changing media every 48 h for 10-16 d. For Stage 3 differentiation, Stage 2 cells were passaged at day 16 into CDM without Activin A, supplemented with 10 ng/mL rhVEGF-A165 (R&D Systems). All bright field images were acquired on a Leica DMIL microscope.
Progenitor cells of the coronary vasculature are believed to reside in the PE and after forming the epicardium, seed the myocardium for future vessel formation. Many unanswered questions remain as to the characteristics of these progenitor cells but clearly, a better understanding of PE development will provide significant insight into this question. Lineage tracing studies in vivo indicate that PE and epicardium forms from an Isl1^+ Nkx2.5^+ progenitor^6, 18, 29. […]
(In western blotting, separated proteins are transferred to a membrane and probed.)

Another assay concerns the target T1, CXCR4 receptor (Homo sapiens, UniProt P61073).
T1 construct: endogenous in cells; host or cells: C56C cells (CXCR4+ CD56+), differentiated from MMCs derived from human pluripotent stem cells
As to the kind of experiment: Boyden chamber migration assay of C56C cells. Type of assay: cell-based. The method, then: FIG. 61. To investigate the mechanisms by which C56Cs migrate towards ischemic/damaged tissue we assayed these cells in a Boyden chamber assay. 300,000 C56C cells were seeded in the upper chamber of a Boyden chamber.
To investigate the mechanisms by which C56Cs migrate towards ischemic/damaged tissue we assayed these cells in a Boyden chamber assay. 300,000 C56C cells were seeded in the upper chamber of a Boyden chamber.

Assay [1] relates to hESC-derived Wt1+ PE cells (EPCs). As to the kind of experiment: Stage 3 differentiation of Wt1+ EPC/PE cells to smooth muscle and endothelial cells, immunostaining. It is filed as cell-based, human. The note with it: VEGF 10 ng/ml, 10 days.
Method: WA01, WA07, WA09, BG01 and BG02 hESCs and Fib-iPS4 hIPSCs^28 were adapted from mouse embryo fibroblast feeder-based culture conditions to feeder-free growth in chemically defined media (CDM) using single cell suspensions^50. Briefly, CDM is composed of DMEM/F12 (Mediatech), 2% probumin (Bovine Serum Albumin fraction V) biotech grade (Millipore), 1× nonessential amino acids, 50 U/mL penicillin, 50 μg/mL streptomycin, 1× trace elements A, B, C (all from Mediatech), 10 μg/mL transferrin, 0.1 mM 3-mercaptoethanol (Gibco), 50 μg/mL ascorbic acid (Sigma), 8 ng/mL bFGF (Invitrogen), 200 ng/mL LR-IGF (Sigma), 10 ng/mL Activin A (R and D Systems) and 10 ng/mL Heregulin 13 (Peprotech). Cells were passaged every 4-5 d using Accutase (Innovative Cell Technologies) to form a single cell suspension and then plated onto plates coated with 1:200 Geltrex (Invitrogen) at a cell density of 7.5×10^4 cells/cm^2 at 37° C. in 5% CO2. Media was changed every 24 h. To differentiate hESC in Stage 1 (FIG. 62), cells were plated at a density of 5.1×10^4 cells/cm^2 into CDM containing 25 ng/mL rmWnt3a and 100 ng/mL rhBMP4 (R&D Systems). Cells were cultured at 37° C. in 5% CO2 and media changed every 24 h for 4-6 d. CDM for Stage 2 of differentiation was supplemented with 25 ng/mL rmWnt3a, 50 ng/mL rhBMP4 with either 100 ng/ml Fgf2 or 4 μM all-trans retinoic acid (Sigma), changing media every 48 h for 10-16 d. […]
The next assay relates to WA09 hESCs. The assay is described as follows: Stage 1 differentiation of WA09 hESCs to Isl1+ splanchnic mesoderm; Q-PCR, immunostaining, flow cytometry. As to conditions: for differentiation / gene expression changes with single factor alone: data not shown. Type of assay: cell-based, human. The method, then: as §1, with “To differentiate hESC in Stage 1 (FIG. 62), cells were plated at a density of 5.1×10^4 cells/cm^2 into CDM containing 25 ng/mL rmWnt3a and 100 ng/mL rhBMP4 (R&D Systems).” left out
Cells were collected as single cell suspensions following harvesting with Accutase and then analyzed using a Cyan flow cytometer (Dako). Cells were blocked with species-specific serum for 30 min followed by blocking with CD16/32 (eBiosciences) for a further 15 min then, with specific antibodies shown in FIG. 81, Table 4. Immunofluorescence was performed on 4% paraformaldehyde-fixed cells in the presence of 10% donkey serum and 0.25% Triton X100 followed by visualization using 2.5% donkey serum in PBS with fluorescent conjugated secondary antibodies. DAPI (Sigma) was used to counterstain nuclei. […]
In general terms: Flow cytometry measures light scatter and fluorescence of single cells or particles in a stream.

Turning to `CC1=C(/C=C/C(C)=C/C=C/C(C)=C/C(=O)O)C(C)(C)CCC1` [RA, All-trans retinoic acid, reference compound], the “treated cells expressing Wt1, Raldh2 and Tbx20” value in the assay with Isl1+ IMP (Spl-m) cells (RA 4 μM with Wnt3a and BMP4, immunofluorescence) is reported as “More than 90%”. The “Erk activation in Isl1+ Spl-m” value in the assay on Isl1+ IMP (Spl-m) cells is given as “activated Erk”.

Consider `c1cc(CN2CCCNCCNCCCNCC2)ccc1CN1CCCNCCNCCCNCC1` [AMD3100], for which the “migration of C56C cells towards SDF1” value on CXCR4 receptor (antagonist added) is listed as “blocked”. For Fgf2: fibroblast growth factor 2, the “transcripts expressed in PE/epicardium (Wt1, Raldh2, Tbx18, Tbx5)” value in the assay on Isl1+ IMP (Spl-m) cells (Fgf2 100 ng/ml after 4 days of Wnt/BMP) is “dramatic increases”. Besides, the “Erk activation in Isl1+ Spl-m” value with Isl1+ IMP (Spl-m) cells was “activated Erk”. Consider VEGF, for which, in assay [1], the “cells positive for CD31 and VE-cadherin (endothelial cells)” value was 10-20%; the “cells positive for SMA and calponin (smooth muscle cells)” value is on record as 80-90%. Take SDF1: SDF1 cytokine: the “migration of C56C cells towards cytokine in lower chamber” value with CXCR4 receptor (300,000 C56C cells in upper chamber) is “responsive and migrate towards”.

B1: BMP4: bone morphogenic protein 4 (protein, UniProt P12644 293-408, looked up)
Bone morphogenetic protein 4: SPKHHSQRARKKNKNCRRHSLYVDFSDVGWNDWIVAPPGYQAFYCHGDCPFPLADHLNSTNHAIVQTLVNSVNSSIPKACCVPTELSAISMLYLDEYDKVVLKNYQEMVVEGCGCR
As for B1, in the assay on WA09 hESCs, the “differentiation / gene expression changes with single factor alone” value is “promoted differentiation”.

B2: Wnt3a: wingless (Wnt) protein (protein, UniProt P56704 19-352, looked up)
Protein Wnt-3a: SYPIWWSLAVGPQYSSLGSQPILCASIPGLVPKQLRFCRNYVEIMPSVAEGIKIGIQECQHQFRGRRWNCTTVHDSLAIFGPVLDKATRESAFVHAIASAGVAFAVTRSCAEGTAAICGCSSRHQGSPGKGWKWGGCSEDIEFGGMVSREFADARENRPDARSAMNRHNNEAGRQAIASHMHLKCKCHGLSGSCEVKTCWWSQPDFRAIGDFLKDKYDSASEMVVEKHRESRGWVETLRPRYTYFKVPTERDLVYYEASPNFCEPNPETGSFGTRDRTCNVSSHGIDGCDLLCCGRGHNARAERRREKCRCVFHWCCYVSCQECTRVYDVHTCK
B2: the “differentiation / gene expression changes with single factor alone” value in the assay with WA09 hESCs is recorded as “None of the gene expression changes”.

B3: Dkk1: Wnt antagonist Dkk1 (protein, UniProt O94907 32-266, looked up)
Dickkopf-related protein 1: TLNSVLNSNAIKNLPPPLGGAAGHPGSAVSAAPGILYPGGNKYQTIDNYQPYPCAEDEECGTDEYCASPTRGGDAGVQICLACRKRRKRCMRHAMCCPGNYCKNGICVSSDQNHFRGEIEETITESFGNDHSTLDGYSRRTTLSSKMYHTKGQEGSVCLRSSDCASGLCCARHFWSKICKPVLKEGQVCTKHRRKGSHGLEIFQRCYCGEGLSCRIQKDHHQASNSSRLHTCQRH
In the case of B3, the “BMP4-dependent differentiation of hESCs without exogenous Wnt3a” value with WA09 hESCs (Dkk1 150 ng/ml with BMP4 50 ng/ml) is given as “blocked”.
